Laboratory results: patent US11891644B2, “T cells with reduced surface fucosylation and methods of making and using the same” (Seagen Inc., priority 2017, dated 2024)

Key:
A20 mouse lymphoma cells = assay: Growth of s.c. implanted A20 lymphoma in Balb/c mice receiving 2FF in drinking water; assay type: in vivo, mouse (Balb/c); conditions: 20 mM 2FF in drinking water from day 0; s.c. A20 tumors, 20 days; versus control group (FIG. 2)
Method: 20 Balb/c mice were implanted with A20 cells (0.2 mL of 5×10^6 cells s.c./mouse), one group of mice consisting of 10 animals received 2FF (20 mM in drinking water) from day 0 to termination of study. A20 lymphoma tumors were allowed to grow out and mice sacrificed after 20 days.

CD3+ T cells = assay: Surface fucosylation of CD3+ T cells isolated from spleens of A20 tumor bearing mice, flow cytometry (surface LCA staining); assay type: in vivo, mouse (Balb/c); conditions: T cells from A20 tumor bearing mice treated with 20 mM 2FF in drinking water, LCA staining (FIG. 3)
Method: Mice from the untreated and 2FF treated group were sacrificed and spleens taken for CD3 T-cell enrichment. In brief spleens were collected in RPMI containing 2% FBS and cell suspensions passed through a 70 μm mesh nylon strainer washed with 2% RPMI. Cells were suspended in 10 mls of ACK lysis buffer and incubate for 5 min in this buffer to get rid of RBCs. Cells were centrifuged at 300×g for 5 minutes and re-suspended in PBS containing 2% FBS and 1 mM EDTA. T-cells were isolated using EasySep mouse T cell isolation kit as per the manufactures recommendation. Briefly, cells were re-suspended at 10^8 cells/mL to which 50 μL/mL of rat serum was added. Cells were then transferred into a 5 mL polystyrene tube and 50 μL of isolation cocktail added to the sample followed by room temperature incubation for 10 minutes. Rapid spheres were vortexed and 75 μL/mls added followed by room temperature incubation for 2.5 minutes. Sample volume was topped off to 2.5 mL and incubated with the cell isolation magnet for 2.5 minutes. The magnet was inverted and CD3^+ T cells collected and washed twice in RPMI and resuspended at 21.2×10^6 cells/ml.

A20 cells = assay: Anti-tumor activity of purified T cells or 2FF in s.c. A20 tumor bearing Balb/c mice; assay type: in vivo, mouse (Balb/c); conditions: treatment started at 100 mm^3 tumor; daily 20 mM 2FF in drinking water, or 2×10^6 T cells IP; versus untreated animals or T cells from untreated tumor bearing mice
Method: One group received no treatment, the other three group were treated when the A20 cells reached 100 mm^3 and were treated either with daily 20 mM 2FF in the drinking water, 2×10^6 T-cells isolated from control tumor bearing mice injected IP, or 2×10^6 T-cells isolated from 2FF tumor bearing mice injected IP. Animals were monitored for subsequent tumor progression.

primary human T cells = assay: Ex-vivo expansion of human peripheral T cells with 2FF, surface fucosylation by flow cytometry (LCA surface staining); assay type: cell-based; conditions: 100 μM 2FF, 10 days in culture, CD3/CD28 beads + IL2; LCA surface staining (FIG. 4)
Method: T cells were isolated from 10 mL of whole blood which was centrifuged first at 1200 rpm (300×g) for 10 min (without brakes). The top layer containing platelets was removed carefully without disrupting the white blood cell layer. Then RosetteSep™ Human T-Cell Enrichment Cocktail (Pan T Cells from StemCell technologies) was added to the remaining blood (500 μLAO mL blood). This was incubated for 20 min and then 1 mL FBS was added along with 10 mL PBS. Histopaque (20-25 mL) placed in a 50 mL Falcon the prepared blood/PBS solution was overlaid very slowly. This was centrifuged with no brake (25° C., 1500 rpm, 25 min). The top layer was removed and the T cells in the buffy coat layer were then removed to a new 50 mL tube. […]
For in vitro culturing of primary human T cell culture, isolated T cells were re-suspended in T cell media (RPMI media supplemented with 10% Fetal calf serum (FCS), 1% Penicillin and moved into two T25 flasks, one with or and one without 100 μM 2-deoxy-2-fluoro-L-fucose. CD3/CD28 antibody coated beads (20 μL/flask) were added to activate the T cells. After 24 hr interleukin 2 (IL2) was added (100 ng/μL). Each time the cells were passaged new IL2 and 2-deoxy-2-fluoro-L-fucose were added. After 10 days in culture, expanded T cells cultured in 2FF were assessed for changes in surface fucosylation by flow cytometry (FIG. 4).

C[C@H](O)[C@@H](O)[C@@H](O)[C@H](F)C=O [2FF, 2-deoxy-2-fluoro-L-fucose]
tumor progression (A20 mouse lymphoma cells): significant delay in tumor progression
surface fucosylation of isolated CD3+ T cells (CD3+ T cells): significant reduction in surface fucosylation
tumor growth (A20 cells): significantly delayed tumor growth and in some cases tumor regression
decrease in surface fucosylation (primary human T cells): about 85%
